# Measurements: PubChem BioAssay AID1053202 (The Scripps Research Institute Molecular Screening Center, 2014)
# The source made the active and inactive calls.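 The calls were made as follows: active = Ki at or below 10 µM; inactive = Ki above 10 µM.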
# Molecular target: Fibrinogen beta chain (Homo sapiens) (UniProt P02675)
# Assay: inhibitors of Tn6 peptide binding to fibrin DD(E), late-stage follow-up, biochemical, fluorescence polarization, Ki, set 1 (AID 1053202)
# Settings: Purified DD(E), TRITC-Tn6 peptide displacement, protein 1 µM, probe 0.05 µM
# Chain of Fibrinogen beta chain (Homo sapiens) (P02675 whole entry, looked up): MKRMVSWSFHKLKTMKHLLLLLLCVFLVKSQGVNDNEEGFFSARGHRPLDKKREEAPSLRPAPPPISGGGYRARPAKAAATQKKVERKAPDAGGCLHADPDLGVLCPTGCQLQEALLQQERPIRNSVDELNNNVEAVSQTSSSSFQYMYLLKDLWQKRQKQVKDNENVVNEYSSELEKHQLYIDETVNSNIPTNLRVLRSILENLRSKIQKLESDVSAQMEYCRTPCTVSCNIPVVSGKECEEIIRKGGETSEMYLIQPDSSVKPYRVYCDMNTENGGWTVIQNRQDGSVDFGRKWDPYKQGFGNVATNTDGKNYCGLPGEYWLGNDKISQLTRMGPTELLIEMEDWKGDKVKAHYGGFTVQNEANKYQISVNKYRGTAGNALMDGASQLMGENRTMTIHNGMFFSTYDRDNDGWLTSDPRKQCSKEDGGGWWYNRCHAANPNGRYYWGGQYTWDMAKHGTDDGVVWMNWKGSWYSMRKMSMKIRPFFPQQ
row,SMILES,Ki
1,CCn1c(CSc2nnc(-c3ccncc3)n2C)nc2cc(C(=O)O)ccc21,5.1 µM
2,CCn1c(CSc2nnc3ccccn23)nc2cc(C(=O)O)ccc21,2.3 µM
3,CCn1c(CSc2nccn2C)nc2cc(C(=O)O)ccc21,inactive
4,OCCn1c(CSc2nnc(-c3ccc4c(c3)OCO4)o2)nc2ccc(Cl)cc21,inactive
5,CCn1c(CSc2nc3ccccc3[nH]2)nc2cc(C(=O)O)ccc21,inactive
6,CCn1c(CSc2n[nH]c(N)n2)nc2cc(C(=O)O)ccc21,5.11 µM
7,CCn1c(CSc2ncn[nH]2)nc2cc(C(=O)O)ccc21,inactive
8,CCn1c(CSc2nnc(-c3ccncc3)n2CCOC)nc2cc(C(=O)O)ccc21,3.75 µM

# Same assay, conditions: Purified DD(E), TRITC-Tn6 peptide displacement, protein 2 µM, probe 0.1 µM
row,SMILES,Ki
1,OCCn1c(CSc2nc3ccccc3o2)nc2ccc(Cl)cc21,inactive
2,CCCCn1c(CSc2nnc(-c3ccccc3F)n2C)nc2cc(S(N)(=O)=O)ccc21,inactive
3,COc1ccc2nc(SCc3nc4ccc(Cl)cc4n3CCO)[nH]c2c1,inactive
4,CCn1c(CSc2nncn2C)nc2cc(C(=O)O)ccc21,5.01 µM
5,Nn1cc(-c2ccccc2)nc1SCc1nc2ccc(Cl)cc2n1CCO,inactive
6,C=CCn1c(SCc2nc3ccc(Cl)cc3n2CCO)nnc1-c1ccc(Cl)cc1,inactive
7,CCn1c(CSc2nnc(-c3ccoc3C)o2)nc2cc(S(=O)(=O)N(C)C)ccc21,inactive
8,CCCn1c(SCc2nc3cc(C(=O)O)ccc3n2CC)nc2ccccc2c1=O,1.34 µM
9,Nc1nnc(SCc2nc3ccccc3[nH]2)s1,inactive
10,CCCCn1c(CSc2n[nH]c(=O)n2CCC)nc2cc(S(N)(=O)=O)ccc21,inactive
11,CCCn1c(SCc2nc3cc(S(=O)(=O)N4CCOCC4)ccc3n2CCC)n[nH]c1=O,5.1 µM
12,C=CCNc1nnc(SCc2nc3cc(S(=O)(=O)N(C)C)ccc3n2CCC)s1,inactive
13,CCn1c(CSc2nnc(COc3ccc(OC)cc3)n2-c2ccccc2F)nc2cc(C(=O)O)ccc21,5.6 µM
14,CCn1c(CSc2nc3ccccc3c(=O)n2-c2ccccc2F)nc2cc(C(=O)O)ccc21,inactive
15,CCn1c(CSc2nnc(N)s2)nc2cc(F)ccc21,2.3 µM
16,CCn1c(CSc2n[nH]c(N)n2)nc2cc(F)ccc21,inactive
17,CCCCn1c(CSc2nnc(-c3ccccc3F)n2N)nc2cc(S(N)(=O)=O)ccc21,inactive
18,CCn1c(CSc2nc(C3CC3)n(-c3ccccc3)n2)nc2cc(S(=O)(=O)N(C)C)ccc21,2.46 µM
19,CCn1c(CSc2ccc(NC(C)=O)cc2)nc2cc(C(=O)O)ccc21,inactive
20,CCn1c(CSc2n[nH]c(-c3ccccc3)n2)nc2cc(S(=O)(=O)N3CCCCC3)ccc21,inactive
21,CCn1c(CSc2nc3sc4c(c3c(=O)n2CCOC)CCCC4)nc2cc(C(=O)O)ccc21,inactive
22,CCn1c(CSc2nnnn2-c2ccccc2)nc2cc(C(=O)O)ccc21,inactive
23,CCn1c(CSc2nc3ccccc3s2)nc2cc(C(=O)O)ccc21,4.57 µM
24,CCn1c(CSc2nnnn2C(C)C)nc2cc(C(=O)O)ccc21,inactive
25,CCn1c(CSc2nccn2C)nc2cc(S(=O)(=O)N3CCCCC3)ccc21,5.1 µM
26,CCn1c(CSc2ncnc3sc(C)c(C)c23)nc2cc(C(=O)O)ccc21,inactive
27,CCn1c(CSc2nnc(Nc3ccccc3F)s2)nc2cc(C(=O)O)ccc21,2.82 µM
28,CCCCn1c(CSc2nc3ccccc3[nH]2)nc2cc(S(N)(=O)=O)ccc21,inactive
29,CCCCn1c(CSc2nnc(-c3ccco3)n2C)nc2cc(S(N)(=O)=O)ccc21,inactive
